In ChEMBL document CHEMBL5726293, “Substituted pyrimidine compounds” (2019) one finds IC50 data, which are given here for two compounds.

This experiment deals with 3',5'-cyclic-AMP phosphodiesterase 4B (Homo sapiens, UniProt Q07343). Briefly: cAMP HTRF Assay to Determine the Activity of hPDE4B1: The inhibiting effect of the compounds on the enzyme activity of human PDE4B1 was measured by the quantification of 5′-adenosine monophosphate (5′-AMP), which is formed from 3′,5′-cyclic adenosine monophosphate (cAMP). Human recombinant enzyme, expressed in Sf9 cells, and the HTRF (homogeneous time-resolved fluorescence) detection method were used in the assay.The test compound or water (control) was mixed with the human recombinant PDE4B1 enzyme (4.8 U) in a buffer consisting of 44.4 mM tris-HCl, 5.28 mM MgCl2, 2.64 mM DTT and 0.044% Tween 20 (pH 7.8). After adding the cAMP enzyme substrate (final concentration 40 nM), the mixture was incubated for 30 minutes at room temperature. Then a fluorescence acceptor (Dye2 marked with cAMP), a fluorescence donor (anti-cAMP antibody marked with a europium cryptate) and the non-specific phosphodiesterase inhibitor IBMX (3-isobutyl-1-methylxanthine; final concentration 1 mM) were added. After 60 min the fluorescence transfer, which correlates with the amount of remaining cAMP, was measured with a microplate reader (Rubystar, BMG) at λex=337 nm, λem=620 nm and λem=665 nm. The enzyme activity was calculated from the quotient formed from the measured signal at 665 nm and that at 620 nm. […].

Bounds are passed on as bounds.

3',5'-cyclic-AMP phosphodiesterase 4B, sequence (Q07343 whole entry): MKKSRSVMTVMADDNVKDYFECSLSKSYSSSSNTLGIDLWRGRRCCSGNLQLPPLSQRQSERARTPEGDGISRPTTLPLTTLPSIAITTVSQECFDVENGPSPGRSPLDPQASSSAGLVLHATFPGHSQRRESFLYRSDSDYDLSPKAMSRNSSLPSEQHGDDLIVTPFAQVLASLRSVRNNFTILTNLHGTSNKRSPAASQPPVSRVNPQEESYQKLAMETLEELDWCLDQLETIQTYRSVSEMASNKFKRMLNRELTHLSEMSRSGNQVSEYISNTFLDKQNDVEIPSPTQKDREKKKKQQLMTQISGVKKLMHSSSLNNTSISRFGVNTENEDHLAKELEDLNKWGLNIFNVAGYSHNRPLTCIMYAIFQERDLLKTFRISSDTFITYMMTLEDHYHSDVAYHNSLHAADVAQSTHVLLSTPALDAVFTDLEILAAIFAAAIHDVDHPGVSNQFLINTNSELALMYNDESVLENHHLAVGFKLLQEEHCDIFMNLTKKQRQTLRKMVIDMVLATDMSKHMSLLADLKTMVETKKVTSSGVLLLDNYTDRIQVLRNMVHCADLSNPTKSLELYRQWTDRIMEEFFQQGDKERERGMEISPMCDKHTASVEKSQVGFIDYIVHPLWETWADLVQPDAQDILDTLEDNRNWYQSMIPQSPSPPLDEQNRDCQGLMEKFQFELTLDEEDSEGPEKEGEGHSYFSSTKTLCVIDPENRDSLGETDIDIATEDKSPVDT

With `CNCCN(C)C(=O)c1ccc2c(c1)N(c1ncc(-c3ccccc3F)cn1)CC21CC1`, the IC50 is under 100 nM.

For the compound `CCc1csc(-c2cnc(N3CC4(CC4)c4ccc(C(=O)N(C)CCO)cc43)nc2)n1`, the IC50 is under 100 nM.

For orientation: IC50 means the concentration at which inhibition is half-maximal.
